Measurements taken from paper PMC6979384, “Characterization of the plant homeodomain (PHD) reader family for their histone tail interactions” (Epigenetics & Chromatin, 2020).
Where no end group is shown, it is not given here. [ ]: non-standard residue; d: D form. Lys(Me2) = CN(C)CCCC[C@H](N)C(=O)O

Key:
Assay in all cases: Histone peptide microarray
Type in all cases: binding, human
CHD5 (PCC) = test system: CHD5 (PCC)
In short: (§1)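 Binding of recombinant GST-fused PHD readers (0.5 μM) is detected on an array of 293 histone peptides, modified singly or in combination. An optimized array protocol is followed, and each intensity is the average of quadruplicate measurements with standard deviation.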

ING3 = details: GST-tagged ING3
In short: as §1

SP140L = details: GST-tagged SP140L
In short: as §1

PHF21A = details: GST-tagged PHF21A
In short: as §1

KDM5A (1) = details: GST-tagged KDM5A (1)
In short: as §1

PHF8 = details: GST-tagged PHF8
In short: as §1

BPTF (PB) = test system: BPTF (PB)
In short: as §1

CHD5 (PPCC) = test system: CHD5 (PPCC)
In short: as §1

DPF2 (PPC2W2) = test system: DPF2 (PPC2W2)
In short: as §1

KDM5B (1) = details: GST-tagged KDM5B (1)
In short: as §1

AIRE (PP) = details: GST-tagged AIRE (PP)
In short: as §1

PHRF1 (RP) = details: GST-tagged PHRF1 (RP)
In short: as §1

ING1 = details: GST-tagged ING1
In short: as §1

MLL5 = details: GST-tagged MLL5
In short: as §1

DIDO1 = details: GST-tagged DIDO1
In short: as §1

PHF13 = details: GST-tagged PHF13
In short: as §1

MORC3 (CW) = test system: MORC3 (CW)
In short: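 GST-tagged PHD finger readers were expressed, purified and applied at 0.5 μM to a microarray of 293 synthetic histone peptides carrying single or combinatorial PTMs, using an optimized protocol. Binding signals are averages with standard deviation from 4 replicates.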

RAG2 = details: GST-tagged RAG2
In short: as §1

TRIM66 (PB) = test system: TRIM66 (PB)
In short: as §1

KDM7A = details: GST-tagged KDM7A
In short: as §1

TAF3 = details: GST-tagged TAF3
In short: as §1

PHF2 = details: GST-tagged PHF2
In short: as §1

KDM4C (TTP) = test system: KDM4C (TTP)
In short: as §1

KDM5A (3) = details: GST-tagged KDM5A (3)
In short: as §1

CHD4 (PPCC) = test system: CHD4 (PPCC)
In short: as §1

ING5 = details: GST-tagged ING5
In short: as §1

PHF23 = details: GST-tagged PHF23
In short: as §1

KDM5B (3) = details: GST-tagged KDM5B (3)
In short: as §1

BAZ2B = details: GST-tagged BAZ2B
In short: as §1

ING4 = details: GST-tagged ING4
In short: as §1

ING2 = details: GST-tagged ING2
In short: as §1

[1] = sheet "Array Heatmap", arrays performed twice, total replicate number n = 4
[2] = sheet Array Heatmap, each array performed twice, total n = 4

Substance: H3K4A + K9me2 (1-15): H3 1-15 (ARTAQTAR[Lys(Me2)]STGGKA; UniProt P68431 2-16, looked up, variant K4A)
- Array Heatmap signal, CHD5 (PCC) (CHD5 (PCC); sheet "Array Heatmap", GST-tagged CHD5 (PCC), arrays performed twice, total replicate number n = 4): 0.7736
- Array Heatmap signal, ING3 (ING3; [1]): 0.5843
- Array Heatmap signal, SP140L (SP140L; [1]): 0.3864
- Array Heatmap signal, PHF21A (PHF21A; [1]): 0.468
- Array Heatmap signal, KDM5A (1) (KDM5A (1); [1]): 0.5206
- Array Heatmap signal, PHF8 (PHF8; [1]): 0.5196
- Array Heatmap signal, BPTF (PB) (BPTF (PB); sheet "Array Heatmap", GST-tagged BPTF (PB), arrays performed twice, total replicate number n = 4): 0.4333
- Array Heatmap signal, CHD5 (PPCC) (CHD5 (PPCC); sheet "Array Heatmap", GST-tagged CHD5 (PPCC), arrays performed twice, total replicate number n = 4): 0.6167
- Array Heatmap signal, DPF2 (PPC2W2) (DPF2 (PPC2W2); sheet "Array Heatmap", GST-tagged DPF2 (PPC2W2), arrays performed twice, total replicate number n = 4): 0.7164
- Array Heatmap signal, KDM5B (1) (KDM5B (1); [1]): 0.7016
- Array Heatmap signal, AIRE (PP) (AIRE (PP); [1]): 0.5312
- Array Heatmap signal, PHRF1 (RP) (PHRF1 (RP); [1]): 0.5557
- Array Heatmap signal, ING1 (ING1; [1]): 0.7124
- Array Heatmap signal, MLL5 (MLL5; [1]): 0.7648
- Array Heatmap signal, DIDO1 (DIDO1; [1]): 0.8787
- Array Heatmap signal, PHF13 (PHF13; [1]): 0.6939
- Array Heatmap signal, MORC3 (CW) (MORC3 (CW); sheet "Array Heatmap", GST-tagged MORC3 (CW), arrays performed twice, total replicate number n = 4): 0.5677
- Array Heatmap signal, RAG2 (RAG2; [1]): 0.4111
- Array Heatmap signal, TRIM66 (PB) (TRIM66 (PB); sheet "Array Heatmap", GST-tagged TRIM66 (PB), arrays performed twice, total replicate number n = 4): 0.6262
- Array Heatmap signal, KDM7A (KDM7A; [1]): 0.6423
- Array Heatmap signal, TAF3 (TAF3; [1]): 0.4571
- Array Heatmap signal, PHF2 (PHF2; [1]): 0.6167
- Array Heatmap signal, KDM4C (TTP) (KDM4C (TTP); sheet "Array Heatmap", GST-tagged KDM4C (TTP), arrays performed twice, total replicate number n = 4): 0.6461
- Array Heatmap signal, KDM5A (3) (KDM5A (3); [1]): 0.6587
- Array Heatmap signal, CHD4 (PPCC) (CHD4 (PPCC); sheet "Array Heatmap", GST-tagged CHD4 (PPCC), arrays performed twice, total replicate number n = 4): 0.6182
- Array Heatmap signal, ING5 (ING5; [1]): 0.4518
- Array Heatmap signal, PHF23 (PHF23; [1]): 0.6377
- Array Heatmap signal, KDM5B (3) (KDM5B (3); [1]): 0.59
- Array Heatmap signal, BAZ2B (BAZ2B; [1]): 0.512
- Array Heatmap signal, ING4 (ING4; [1]): 0.5574
- Array Heatmap signal, ING2 (ING2; [1]): 0.695

Substance: H3K4ac + K9ac + K14ac + K18ac: H3 1-20
- Array Heatmap signal (histone peptide microarray) (CHD5 (PCC); GST-tagged CHD5 (PCC = PHD + Dual Chromodomain), sheet Array Heatmap, each array performed twice, total n = 4): 0.7123
- Array Heatmap signal (histone peptide microarray) (ING3; [2]): 0.4699
- Array Heatmap signal (histone peptide microarray) (SP140L; [2]): 0.3096
- Array Heatmap signal (histone peptide microarray) (PHF21A; [2]): 0.4272
- Array Heatmap signal (histone peptide microarray) (KDM5A (1); [2]): 0.4231
- Array Heatmap signal (histone peptide microarray) (PHF8; [2]): 0.3207
- Array Heatmap signal (histone peptide microarray) (BPTF (PB); GST-tagged BPTF (PB = PHD + Bromodomain), sheet Array Heatmap, each array performed twice, total n = 4): 0.3593
- Array Heatmap signal (histone peptide microarray) (CHD5 (PPCC); GST-tagged CHD5 (PPCC = Dual PHD + Dual Chromodomain), sheet Array Heatmap, each array performed twice, total n = 4): 0.5084
- Array Heatmap signal (histone peptide microarray) (DPF2 (PPC2W2); GST-tagged DPF2 (PPC2W2 = Dual PHD + C2W2-type Zn-finger), sheet Array Heatmap, each array performed twice, total n = 4): 0.6596
- Array Heatmap signal (histone peptide microarray) (KDM5B (1); [2]): 0.573
- Array Heatmap signal (histone peptide microarray) (AIRE (PP); [2]): 0.3782
- Array Heatmap signal (histone peptide microarray) (PHRF1 (RP); [2]): 0.4629
- Array Heatmap signal (histone peptide microarray) (ING1; [2]): 0.5598
- Array Heatmap signal (histone peptide microarray) (MLL5; [2]): 0.5536
- Array Heatmap signal (histone peptide microarray) (DIDO1; [2]): 0.7084
- Array Heatmap signal (histone peptide microarray) (PHF13; [2]): 0.5706
- Array Heatmap signal (histone peptide microarray) (MORC3 (CW); GST-tagged MORC3 (CW = CW-type Zn-finger), sheet Array Heatmap, each array performed twice, total n = 4): 0.3581
- Array Heatmap signal (histone peptide microarray) (RAG2; [2]): 0.2412
- Array Heatmap signal (histone peptide microarray) (TRIM66 (PB); GST-tagged TRIM66 (PB = PHD + Bromodomain), sheet Array Heatmap, each array performed twice, total n = 4): 0.6561
- Array Heatmap signal (histone peptide microarray) (KDM7A; [2]): 0.3021
- Array Heatmap signal (histone peptide microarray) (TAF3; [2]): 0.2581
- Array Heatmap signal (histone peptide microarray) (PHF2; [2]): 0.6121
- Array Heatmap signal (histone peptide microarray) (KDM4C (TTP); GST-tagged KDM4C (TTP = Tandem Tudor domain + PHD), sheet Array Heatmap, each array performed twice, total n = 4): 0.4292
- Array Heatmap signal (histone peptide microarray) (KDM5A (3); [2]): 0.4281
- Array Heatmap signal (histone peptide microarray) (CHD4 (PPCC); GST-tagged CHD4 (PPCC = Dual PHD + Dual Chromodomain), sheet Array Heatmap, each array performed twice, total n = 4): 0.5829
- Array Heatmap signal (histone peptide microarray) (ING5; [2]): 0.3295
- Array Heatmap signal (histone peptide microarray) (PHF23; [2]): 0.5552
- Array Heatmap signal (histone peptide microarray) (KDM5B (3); [2]): 0.4694
- Array Heatmap signal (histone peptide microarray) (BAZ2B; [2]): 0.563
- Array Heatmap signal (histone peptide microarray) (ING4; [2]): 0.4318
- Array Heatmap signal (histone peptide microarray) (ING2; [2]): 0.6105
